Source: patent US6534523B1, “Hepatitis C inhibitor tri-peptides” (Boehringer Ingelheim (Canada) Ltd., priority 1998, dated 2003)

Key:
[1] = target: T1, human liver cathepsin B (Cat B) (Homo sapiens, UniProt P07858); assay: Specificity assay (Example 40), human liver cathepsin B; type: biochemical
T1 construct: from tissue; host or cells: human liver
Description: The specificity of the compounds was determined against a variety of serine proteases: human leukocyte elastase, porcine pancreatic elastase and bovine pancreatic α-chymotrypsin and one cysteine protease: human liver cathepsin B. In all cases a 96-well plate format protocol using a calorimetric p-nitroaniline (pNA) substrate specific for each enzyme was used. Each assay included a 1 h enzyme-inhibitor pre-incubation at 30° C. followed by addition of substrate and hydrolysis to ≈30% conversion as measured on a UV Thermomax® microplate reader. Substrate concentrations were kept as low as possible compared to KM to reduce substrate competition. Compound concentrations varied from 300 to 0.06 μM depending on their potency.
The final conditions for each assay were as follows:
[100 mM NaHPO4 pH 6, 0.1 mM EDTA, 3% DMSO, 1 mM TCEP, 0.01% Tween-20, 30 μM Z-FR-pNA and 5 nM cathepsin B (the stock enzyme was activated in buffer containing 20 mM TCEP before use)].
The sequential 2-fold dilutions of the inhibitor solution were performed on a separate plate by the liquid handler using 50 mM Tris-HCl pH 8, 50 mM NaCl, 0.1 mM EDTA, 0.02% Tween-20, 15% DMSO. All other specificity assays were performed in a similar fashion.
The percentage of inhibition was calculated using the formula:
[1-((UVinh−UVblank)/(UVctl−UVblank))]×100 […]

[2] = target: T2, full length NS3-NS4A heterodimer protein (His-NS3-NS4AFL) (Hepatitis C virus genotype 1b, UniProt P26663); assay: Full-length NS3-NS4A heterodimer protein assay (Example 38); type: biochemical, HCV genotype 1b
T2 construct: The full length mature NS3 and NS4A heterodimer protein (His-NS3-NS4AFL) was expressed; made in house; host or cells: Sf21 insect cells, recombinant baculovirus
Description: Full-length NS3-NS4A Heterodimer Protein Assay
The NS2-NS5B-3′ non coding region was cloned by RT-PCR into the pCR®3 vector (Invitrogen) using RNA extracted from the serum of an HCV genotype 1b infected individual (provided by Dr. Bernard Willems, Hôpital St-Luc, Montréal, Québec, Canada). The NS3-NS4A DNA region was then subcloned by PCR into the pFastBac™ HTa baculovirus expression vector (Gibco/BRL). The vector sequence includes a region encoding a 28-residue N-terminal sequence which contains a hexahistidine tag. The Bac-to-Bac™ baculovirus expression system (Gibco/BRL) was used to produce the recombinant baculovirus. The full length mature NS3 and NS4A heterodimer protein (His-NS3-NS4AFL) was expressed by infecting 10^6 Sf21 cells/mL with the recombinant baculovirus at a multiplicity of infection of 0.1-0.2 at 27° C. The infected culture was harvested 48 to 64 h later by centrifugation at 4° C. The cell pellet was homogenized in 50 mM NaPO4, pH 7.5, 40% glycerol (w/v), 2 mM β-mercaptoethanol, in presence of a cocktail of protease inhibitors. […] Fluorescence of the N-terminal product was monitored on a Perkin-Elmer LS-50B fluorometer equipped with a 96-well plate reader (excitation wavelength: 325 nm; emission wavelength: 423 nm).
The % inhibition was calculated with the following equation: […]

T2 sequence (P26663 1027-1657): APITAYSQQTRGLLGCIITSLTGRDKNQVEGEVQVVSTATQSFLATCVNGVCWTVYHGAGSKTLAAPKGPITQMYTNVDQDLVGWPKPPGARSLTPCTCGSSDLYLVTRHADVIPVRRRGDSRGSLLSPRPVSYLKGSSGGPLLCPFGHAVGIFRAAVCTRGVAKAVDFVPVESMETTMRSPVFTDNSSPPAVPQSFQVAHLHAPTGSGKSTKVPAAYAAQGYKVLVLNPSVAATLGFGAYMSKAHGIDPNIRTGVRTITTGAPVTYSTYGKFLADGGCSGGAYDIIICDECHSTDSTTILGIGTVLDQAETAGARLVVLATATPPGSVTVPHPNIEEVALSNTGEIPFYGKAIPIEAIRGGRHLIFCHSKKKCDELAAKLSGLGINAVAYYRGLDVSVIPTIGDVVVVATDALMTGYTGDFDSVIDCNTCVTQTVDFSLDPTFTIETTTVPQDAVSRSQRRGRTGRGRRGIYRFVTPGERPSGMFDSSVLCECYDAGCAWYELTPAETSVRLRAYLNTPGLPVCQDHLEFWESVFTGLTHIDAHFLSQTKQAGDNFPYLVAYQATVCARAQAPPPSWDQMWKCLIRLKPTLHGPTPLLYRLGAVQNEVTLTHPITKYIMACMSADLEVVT
T2 sequence (P26663 1658-1711): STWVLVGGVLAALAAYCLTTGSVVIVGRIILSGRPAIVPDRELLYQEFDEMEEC

## C=C[C@@H]1C[C@]1(NC(=O)[C@@H]1C[C@@H](Oc2cc(-c3ccccc3)nc3cc(OC)ccc23)CN1C(=O)[C@@H](NC(=O)OC(C)(C)C)C(C)C)C(=O)O [compound 601]
[1]
  IC50: > 75000 nM
[2]
  IC50: 30 nM
